Experimental findings from article PMC3152332 (Nucleic Acids Research, 2011) are described below.

One test addresses Ec-Mtq2-Trm112 (Encephalitozoon cuniculi, UniProt Q8SRR4). Conditions: SAM co-purified with the complex; contacts only Mtq2 residues.
A further test addresses Hs-Mtq2 + Hs-Trm112 (Homo sapiens, UniProt Q9Y5N5). The note with it: labelled compound; with Hs-Trm112; methylation buffer, 30 °C, 15 min.
A further test addresses yeast Mtq2-Trm112 (Saccharomyces cerevisiae, UniProt Q03920). Conditions: labelled compound; eRF1, eRF3 and GTP present.

Ec-Mtq2-Trm112, sequence (Q8SRR4 1-164): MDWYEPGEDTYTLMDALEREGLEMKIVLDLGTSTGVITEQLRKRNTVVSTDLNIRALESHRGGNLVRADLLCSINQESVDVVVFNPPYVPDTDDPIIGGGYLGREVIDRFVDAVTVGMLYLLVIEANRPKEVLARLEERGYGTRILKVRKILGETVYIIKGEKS
Ec-Mtq2-Trm112, sequence (Q8SUP0 1-125 partner): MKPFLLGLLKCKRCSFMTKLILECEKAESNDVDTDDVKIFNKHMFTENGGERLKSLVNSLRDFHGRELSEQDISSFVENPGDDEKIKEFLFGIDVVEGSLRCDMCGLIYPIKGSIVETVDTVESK
yeast Mtq2-Trm112, sequence (Q03920 whole entry): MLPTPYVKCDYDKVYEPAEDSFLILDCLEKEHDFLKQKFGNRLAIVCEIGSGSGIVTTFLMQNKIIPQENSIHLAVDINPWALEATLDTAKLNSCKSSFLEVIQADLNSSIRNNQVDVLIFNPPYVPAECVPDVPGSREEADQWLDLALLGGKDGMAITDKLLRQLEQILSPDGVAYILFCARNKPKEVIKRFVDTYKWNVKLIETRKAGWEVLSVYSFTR
yeast Mtq2-Trm112, sequence (P53738 whole entry partner): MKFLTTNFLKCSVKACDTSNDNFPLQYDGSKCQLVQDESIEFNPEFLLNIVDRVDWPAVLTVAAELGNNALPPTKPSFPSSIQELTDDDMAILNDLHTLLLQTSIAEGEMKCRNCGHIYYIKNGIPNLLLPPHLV
Hs-Mtq2 + Hs-Trm112, sequence (Q9Y5N5 whole entry): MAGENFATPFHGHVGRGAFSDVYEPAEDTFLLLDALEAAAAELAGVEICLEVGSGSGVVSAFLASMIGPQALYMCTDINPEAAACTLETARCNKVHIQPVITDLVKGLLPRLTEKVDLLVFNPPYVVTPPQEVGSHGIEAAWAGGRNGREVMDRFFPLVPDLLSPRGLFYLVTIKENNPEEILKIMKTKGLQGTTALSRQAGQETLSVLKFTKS
Hs-Mtq2 + Hs-Trm112, sequence (Q9UI30 whole entry partner): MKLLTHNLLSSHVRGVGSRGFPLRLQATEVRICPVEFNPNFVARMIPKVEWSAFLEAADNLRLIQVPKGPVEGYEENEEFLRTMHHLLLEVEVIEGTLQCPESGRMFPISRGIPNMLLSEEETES

In the case of `C[S+](CC[C@H](N)C(=O)O)C[C@H]1O[C@@H](n2cnc3c(N)ncnc32)[C@H](O)[C@@H]1O` (stereo partly drawn) [SAM], the “X-ray crystal structure, 2.1 Å” value on Ec-Mtq2-Trm112 is given as “an unambiguous electron density corresponding to a SAM molecule is present in its expected binding site”. Also, on Hs-Mtq2 + Hs-Trm112, the SAM-binding activity result is “Incubation of this protein with an equimolar amount of Hs-Trm112 resulted in restoration of SAM-binding activity”. Moreover, the “[3H]SAM methylation of eRF1, initial velocity” value on yeast Mtq2-Trm112 is “incubating eRF1, eRF3 and GTP with Mtq2-Trm112 complex in presence of [3H] SAM”.
